Measurements taken from patent publication US20190022152A1, “MICROBIOME RESPONSE TO AGENTS” (Yeda Research and Development Co., Ltd., priority 2014, published 2019).
Read-outs that look alike come from different tables or passages of the source.

System: fecal microbiota
Conditions: fecal samples, 11 weeks consumption
Experimental: Illumina sequence reads were mapped to the human microbiome reference genome database of the Human Microbiome Project [www(dot)hmpdacc(dot)org/HMREFG/^32], and to a gut microbial gene catalogue^33 using GEM mapper^58 with the following parameters: • -m 3 -s 0 -q offset-33 -gem-quality-threshold 26
Microbial species abundance was measured as the fraction of reads that mapped to a single species in the database. An EM algorithm adapted from Pathoscope^59 was employed to determine the correct assignment of reads that mapped to more than one species. We considered only species for which at least 10% of the genome was covered (each coverage bin was 10,000-bp long) in at least one of the growth conditions (saccharin, water, or glucose). Reads mapped to the gut microbial gene catalogue were assigned a KEGG^34,35 ID according to the mapping available with the catalogue. Genes were subsequently mapped to KEGG pathways, and only pathways whose gene coverage was above 0.2 were included.

With `OC[C@H]1OC(O)[C@H](O)[C@@H](O)[C@@H]1O` (stereo partly drawn) [Glucose] the “Fold change (week 11/week 0) in relative species abundance” value (Symbol BACT_9, Number 996) was 1.24, the “Fold change (week 11/week 0) in relative species abundance” value (Symbol BACT_49, Number 420) was 0.15 and the “Fold change (week 11/week 0) in relative species abundance” value (Symbol BACT_60, Number 752) was 0.88. The “Fold change (week 11/week 0) in relative species abundance” value (Symbol BACT_65, Number 918) was 1.20, the “Fold change (week 11/week 0) in relative species abundance” value (Symbol BACT_70, Number 863) was 1.58 and the “Fold change (week 11/week 0) in relative species abundance” value (Symbol BACT_85, Number 934) was 0.91. The “Fold change (week 11/week 0) in relative species abundance” value (Symbol BACT_170, Number 883) was 0.93, the “Fold change (week 11/week 0) in relative species abundance” value (Symbol BACT_171, Number 748) was 1.24 and the “Fold change (week 11/week 0) in relative species abundance” value (Symbol BACT_178, Number 921) was 1.53. The “Fold change (week 11/week 0) in relative species abundance” value (Symbol BACT_181, Number 767) was 1.14, the “Fold change (week 11/week 0) in relative species abundance” value (Symbol BACT_185, Number 633) was 5.63 and the “Fold change (week 11/week 0) in relative species abundance” value (Symbol BACT_189, Number 636) was 1.66. The “Fold change (week 11/week 0) in relative species abundance” value (Symbol BACT_192, Number 995) was 0.86, the “Fold change (week 11/week 0) in relative species abundance” value (Symbol BACT_195, Number 523) was 1.15 and the “Fold change (week 11/week 0) in relative species abundance” value (Symbol BACT_225, Number 953) was 1.18. The “Fold change (week 11/week 0) in relative species abundance” value (Symbol BACT_258, Number 620) was 1.13, the “Fold change (week 11/week 0) in relative species abundance” value (Symbol BACT_260, Number 1443) was 0.94 and the “Fold change (week 11/week 0) in relative species abundance” value (Symbol BACT_300, Number 769) was 1.16. For the same compound, the “Fold change (week 11/week 0) in relative species abundance” value (Symbol BACT_413, Number 847) was 1.17, the “Fold change (week 11/week 0) in relative species abundance” value (Symbol BACT_419, Number 920) was 0.67 and the “Fold change (week 11/week 0) in relative species abundance” value (Symbol BACT_420, Number 922) was 0.87. The “Fold change (week 11/week 0) in relative species abundance” value (Symbol BACT_424, Number 906) was 1.13, the “Fold change (week 11/week 0) in relative species abundance” value (Symbol BACT_449, Number 772) was 1.13 and the “Fold change (week 11/week 0) in relative species abundance” value (Symbol BACT_463, Number 719) was 1.55. For the same compound, the “Fold change (week 11/week 0) in relative species abundance” value (Symbol BACT_496, Number 765) was 0.62, the “Fold change (week 11/week 0) in relative species abundance” value (Symbol BACT_499, Number 35) was 0.73 and the “Fold change (week 11/week 0) in relative species abundance” value (Symbol BACT_511, Number 591) was 1.55. For the same compound, the “Fold change (week 11/week 0) in relative species abundance” value (Symbol BACT_535, Number 940) was 0.66, the “Fold change (week 11/week 0) in relative species abundance” value (Symbol BACT_539, Number 117) was 0.75 and the “Fold change (week 11/week 0) in relative species abundance” value (Symbol BACT_551, Number 907) was 0.73. The “Fold change (week 11/week 0) in relative species abundance” value (Symbol BACT_572, Number 963) was 0.92, the “Fold change (week 11/week 0) in relative species abundance” value (Symbol BACT_627, Number 886) was 0.66 and the “Fold change (week 11/week 0) in relative species abundance” value (Symbol BACT_681, Number 125) was 1.55. For the same compound, the “Fold change (week 11/week 0) in relative species abundance” value (Symbol BACT_722, Number 377) was 1.47, the “Fold change (week 11/week 0) in relative species abundance” value (Symbol BACT_843, Number 1318) was 0.69 and the “Fold change (week 11/week 0) in relative species abundance” value (Symbol BACT_850, Number 394) was 1.86. For the same compound, the “Fold change (week 11/week 0) in relative species abundance” value (Symbol BACT_852, Number 766) was 0.88, the “Fold change (week 11/week 0) in relative species abundance” value (Symbol BACT_855, Number 835) was 1.23 and the “Fold change (week 11/week 0) in relative species abundance” value (Symbol BACT_890, Number 163) was 0.74. The “Fold change (week 11/week 0) in relative species abundance” value (Symbol BACT_913, Number 904) was 1.17, the “Fold change (week 11/week 0) in relative species abundance” value (Symbol BACT_915, Number 1315) was 1.23 and the “Fold change (week 11/week 0) in relative species abundance” value (Symbol BACT_1001, Number 933) was 0.79. For the same compound, the “Fold change (week 11/week 0) in relative species abundance” value (Symbol BACT_1083, Number 1008) was 2.25, the “Fold change (week 11/week 0) in relative species abundance” value (Symbol BACT_1131, Number 942) was 0.79 and the “Fold change (week 11/week 0) in relative species abundance” value (Symbol BACT_1311, Number 1259) was 1.16. For the same compound, the “Fold change (week 11/week 0) in relative species abundance” value (Symbol BACT_1321, Number 1255) was 1.16, the “Fold change (week 11/week 0) in relative species abundance” value (Symbol BACT_1322, Number 1396) was 1.50 and the “Fold change (week 11/week 0) in relative species abundance” value (Symbol BACT_1324, Number 1264) was 2.61. The “Fold change (week 11/week 0) in relative species abundance” value (Symbol BACT_1348, Number 1311) was 1.15, the “Fold change (week 11/week 0) in relative species abundance” value (Symbol BACT_1378, Number 1375) was 2.83 and the “Fold change (week 11/week 0) in relative species abundance” value (Symbol BACT_1427, Number 1266) was 1.13. The “Fold change (week 11/week 0) in relative species abundance” value (Symbol BACT_1442, Number 1400) was 1.75, the “Fold change (week 11/week 0) in relative species abundance” value (Symbol BACT_1457, Number 1337) was 0.82 and the “Fold change (week 11/week 0) in relative species abundance” value (Symbol BACT_1501, Number 1331) was 0.79. The “Fold change (week 11/week 0) in relative species abundance” value (Symbol BACT_1526, Number 1227) was 1.58, the “Fold change (week 11/week 0) in relative species abundance” value (Symbol BACT_1555, Number 1469) was 0.62 and the “Fold change (week 11/week 0) in relative species abundance” value (Symbol BACT_1569, Number 1462) was 0.78. For the same compound, the “Fold change (week 11/week 0) in relative species abundance” value (Symbol BACT_1595, Number 1533) was 1.13, the “Fold change (week 11/week 0) in relative species abundance” value (Symbol BACT_1656, Number 1503) was 1.55 and the “Fold change (week 11/week 0) in relative species abundance” value (Symbol BACT_3004, Number 5797) was 1.54. The “Fold change (week 11/week 0) in relative species abundance” value (Symbol BACT_3005, Number 5799) was 1.56, the “Fold change (week 11/week 0) in relative species abundance” value (Symbol BACT_3007, Number 5798) was 0.94 and the “Fold change (week 11/week 0) in relative species abundance” value (Symbol BACT_3024, Number 5841) was 0.72. The “Fold change (week 11/week 0) in relative species abundance” value (Symbol BACT_3045, Number 5818) was 1.19, the “Fold change (week 11/week 0) in relative species abundance” value (Symbol BACT_3058, Number 5816) was 1.54 and the “Fold change (week 11/week 0) in relative species abundance” value (Symbol BACT_3060, Number 5821) was 1.62. For the same compound, the “Fold change (week 11/week 0) in relative species abundance” value (Symbol BACT_3062, Number 5800) was 1.49, the “Fold change (week 11/week 0) in relative species abundance” value (Symbol BACT_3085, Number 5842) was 1.90 and the “Fold change (week 11/week 0) in relative species abundance” value (Symbol BACT_4040, Number 5769) was 16.24. The “Fold change (week 11/week 0) in relative species abundance” value (Symbol BACT_4042, Number 5770) was 0.28, the “Fold change (week 11/week 0) in relative species abundance” value (Symbol EUKY_222, Number 1954) was 1.60 and the “Fold change (week 11/week 0) in relative species abundance” value (Symbol V1RL3522, Number 3522) was 2.13.
